Source: patent US20240158446A1, “CYCLIC COMPOUND HAVING SELECTIVE INHIBITORY ACTION ON KRAS OVER HRAS AND NRAS” (CHUGAI SEIYAKU KABUSHIKI KAISHA, priority 2021, published 2024)
Where two headings read alike, the source gives them in different places.

Columns and labels:
[1] = target: GDP-bound KRAS wild-type protein (Homo sapiens, UniProt P01116); assay: Binding to KRAS by surface plasmon resonance (SPR), Single Cycle Kinetics; conditions: SPR, Single Cycle Kinetics, GDP-bound KRAS wild-type protein, read-out: KRAS KD
[2] = target: GDP-bound NRAS wild-type protein (Homo sapiens, UniProt P01111); assay: Binding to NRAS by surface plasmon resonance (SPR), Single Cycle Kinetics; conditions: SPR; for NRAS/KRAS (ratio of KD value for NRAS to KD value for KRAS): GDP-bound NRAS wild-type protein vs GDP-bound KRAS wild-type protein
[3] = target: GDP-bound HRAS wild-type protein (Homo sapiens, UniProt P01112); assay: Binding to HRAS by surface plasmon resonance (SPR), Single Cycle Kinetics; conditions: SPR; for HRAS/KRAS (ratio of KD value for HRAS to KD value for KRAS): GDP-bound HRAS wild-type protein vs GDP-bound KRAS wild-type protein
[4] = tested on: human lung cancer strain NCI-H441;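 note: cell proliferation inhibition after four days measured by CellTiter-Glo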

Sequence of GDP-bound NRAS wild-type protein (P01111 whole entry): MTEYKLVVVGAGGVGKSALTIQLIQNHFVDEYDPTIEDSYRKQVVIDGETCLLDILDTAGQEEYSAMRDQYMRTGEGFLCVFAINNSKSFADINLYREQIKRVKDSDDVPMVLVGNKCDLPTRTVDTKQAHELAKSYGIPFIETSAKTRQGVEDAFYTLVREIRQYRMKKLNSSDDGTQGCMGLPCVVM
Sequence of GDP-bound KRAS wild-type protein (P01116 whole entry): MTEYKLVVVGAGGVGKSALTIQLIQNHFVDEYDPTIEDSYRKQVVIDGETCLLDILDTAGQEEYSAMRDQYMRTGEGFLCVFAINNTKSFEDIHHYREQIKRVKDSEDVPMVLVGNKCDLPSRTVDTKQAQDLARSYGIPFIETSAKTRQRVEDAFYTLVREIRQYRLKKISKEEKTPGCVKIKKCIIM
Sequence of GDP-bound HRAS wild-type protein (P01112 whole entry): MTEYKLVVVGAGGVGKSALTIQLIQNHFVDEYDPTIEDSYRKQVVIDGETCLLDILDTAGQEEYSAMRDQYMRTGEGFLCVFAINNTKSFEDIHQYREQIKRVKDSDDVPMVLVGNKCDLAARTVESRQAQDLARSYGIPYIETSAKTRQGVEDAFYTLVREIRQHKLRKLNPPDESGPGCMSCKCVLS

Row | Structure (SMILES) | Kd [1] [nM] | NRAS/KRAS (ratio of KD value for NRAS to KD value for KRAS) [2] | HRAS/KRAS (ratio of KD value for HRAS to KD value for KRAS) [3] | IC50 [4] [nM] | Kd ([1]; 1:1 binding model) [nM] | NRAS/KRAS (ratio of KD value for NRAS to KD value for KRAS) ([2]; KD ratio class) | HRAS/KRAS (ratio of KD value for HRAS to KD value for KRAS) ([3]; KD ratio class) | ratio of the KD value with respect to GDP-bound NRAS wild-type protein to the KD value with respect to KRAS ([2]; KD(NRAS)/KD(KRAS)) | ratio of the KD value with respect to GDP-bound HRAS wild-type protein to the KD value with respect to KRAS ([3]; KD(HRAS)/KD(KRAS)) | IC50 ([4]; read-out: NCI-H441 cell proliferation inhibitory activity, 50% proliferation inhibitory concentration (IC50 value), NCI-H441, four days, CellTiter-Glo) [nM]
1 | CCOC[C@H]1C(=O)N[C@@H]([C@@H](C)CC)C(=O)N2CCC[C@H]2C(=O)N(C)[C@H]2C/C=C\CCN(C2=O)[C@@H](Cc2ccc(C)cc2)C(=O)N(C)CC(=O)N[C@@H](CCc2ccc(C(F)(F)F)c(OC)c2)C(=O)N2C[C@@H](C)C[C@H]2C(=O)NC2(CC(C)(C)C2)C(=O)N(C)[C@@H](C2CCCC2)C(=O)N(C)[C@H](C(=O)N(C)CC)CC(=O)N1C [PP2427] | 0.7 | AA (a compound having 20 or more is denoted as AA) | A (a compound having 10 or more and less than 20 is denoted as A) | 36.6 | – | – | – | – | – | –
2 | CCO[C@@H]1C[C@H]2C(=O)NC3(CCC3)C(=O)N(C)[C@@H](C3CCCC3)C(=O)N(C)[C@H](C(=O)N3CCOCC3)CC(=O)N(C)[C@@H](Cc3cccc(C#N)c3)C(=O)N[C@@H]([C@@H](C)CC)C(=O)N(C)CC(=O)N(C)[C@H]3CCCCCN(C3=O)[C@@H](Cc3ccc(F)cc3)C(=O)N(C)CC(=O)N[C@@H](CCc3cc(F)c(C(F)(F)F)c(F)c3)C(=O)N2C1 [PP1186] | 0.094 | B (a compound having 3 or more and less than 10 is denoted as B) | B (a compound having 3 or more and less than 10 is denoted as B) | 54.4 | – | – | – | – | – | –
3 | CCO[C@@H]1C[C@H]2C(=O)NC3(CCCC3)C(=O)N(C)[C@@H](C3CCCC3)C(=O)N(C)[C@H](C(=O)N(C)C)CC(=O)N(C)[C@@H](CC3CC3)C(=O)N[C@@H]([C@@H](C)CC)C(=O)N(C)CC(=O)N(C)[C@H]3C[C@@H](C)[C@@H](C)CN(C3=O)[C@@H](Cc3ccc(C(F)(F)F)cc3)C(=O)N(C)CC(=O)N[C@@H](CCc3cc(F)c(C(F)(F)F)c(F)c3)C(=O)N2C1 [PP1356] | – | – | – | 3.3 | 0.047 | B (a compound having 3 or more and less than 10 is denoted as B) | B (a compound having 3 or more and less than 10 is denoted as B) | – | – | –
4 | CC[C@H](C)[C@@H]1NC(=O)[C@@H]2CCC/C=C/c3ccc(cc3)C[C@@H](C(=O)N(C)CC(=O)N[C@@H](CCc3ccc(Cl)c(Cl)c3)C(=O)N3C[C@H](OC4CCC4)C[C@H]3C(=O)NC3(CC(C)(C)C3)C(=O)N(C)[C@@H](C3CCCC3)C(=O)N(C)[C@H](C(=O)N(C)CC)CC(=O)N2C)N2CC/C=C\C[C@@H](C2=O)N(C)C(=O)CN(C)C1=O [PP3058] | 0.21 | A (a compound having 10 or more and less than 20 is denoted as A) | A (a compound having 10 or more and less than 20 is denoted as A) | 21.2 | – | – | – | – | – | –
5 | CCO[C@@H]1C[C@H]2C(=O)NC3(CC(C)(C)C3)C(=O)N(C)[C@@H](C3CCCC3)C(=O)N(C)[C@H](C(=O)N(C)C)CC(=O)N(C)[C@H]3CCCCCc4ccc(cc4)C[C@@H](C(=O)N(C)CC(=O)N[C@@H](CCc4ccc(Cl)c(Cl)c4)C(=O)N2C1)N1CC/C=C\C[C@@H](C1=O)N(C)C(=O)CN(C)C(=O)[C@H]([C@@H](C)CC)NC3=O [PP3076] | 0.059 | AA (a compound having 20 or more is denoted as AA) | A (a compound having 10 or more and less than 20 is denoted as A) | – | – | – | – | AA (a compound having 20 or more is denoted as AA) | A (a compound having 10 or more and less than 20 is denoted as A) | 4.1
6 | CCO[C@@H]1C[C@H]2C(=O)NC3(CC(C)(C)C3)C(=O)N(C)[C@@H](C(CC)CC)C(=O)N(C)[C@H](C(=O)N(C)C)CC(=O)N(C)[C@@H](CC3CC3)C(=O)N[C@@H]([C@@H](C)CC)C(=O)N(C)CC(=O)N(C)[C@H]3C/C=C\CCN(C3=O)[C@@H](CC3CCC(F)(F)CC3)C(=O)N(C)CC(=O)N[C@@H](CCc3ccc(C(F)(F)F)c(Cl)c3)C(=O)N2C1 [PP2495] | 0.84 | A (a compound having 10 or more and less than 20 is denoted as A) | A (a compound having 10 or more and less than 20 is denoted as A) | 17.4 | – | – | – | – | – | –
